Values joined by “and” are separate entries in the source; they are usually repeats but may differ in a detail not shown here. Equal entries are not always repeated. Structures can show the parent of a compound that is named as a salt. Where two headings read alike, the source gives them in different places.
Key:
P. aeruginosa PΔ3-Pore = assay: MIC by two-fold dilution, barrierless PΔ3-Pore; type: cell-based, Pseudomonas aeruginosa; settings: for MIC: Pseudomonas aeruginosa, read-out: MICs, P∆3-Pore, MOPS-M9 medium; for MICs: P∆3-Pore, LB broth, Table S2
Procedure: (§1) In all experiments, P. aeruginosa PAO1-Pore (PAO1 attTn7::PLAC-fhuA) and PΔ3-Pore (ΔmexAB ΔmexCD ΔmexXY attTn7::PLAC-fhuA) strains were used[29]. Strains were routinely grown in Luria–Bertani (LB) or MOPS-M9 medium at 37 °C with aeration. MICs shown in Tables 1 and 2 were determined by a two-fold dilution method in LB broth and MOPS-M9 medium, respectively, following the previously described protocol.

P. aeruginosa PAO1 cells = assay: LC–MS quantification of intracellular accumulation, PAO1; settings: 10-80 µM; for Concentration slopes of accumulation, PAO1_1 min: 1 min incubation; for Concentration slopes of accumulation, PAO1_40 min: 40 min incubation;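 as to all read-outs here: slope of accumulation versus external concentration fitted as a line through zero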
Procedure: (§2) PAO1-Pore and PΔ3-Pore were grown at 37 °C overnight with shaking at 225 rpm in 50 mM MOPS-M9 (pH 7.2) Minimal Medium supplemented with 1% glycerol[42],[43].
(§3) The next day, cells were sub-cultured (1.5:100) in fresh MOPS-M9 medium and grown for 16 h. The cultures were then split into two flasks and one of them was induced with 0.1 mM IPTG. Cells incubated for additional 4 h until OD600 reached ~ 1.0 and harvested by centrifugation at 3,275xg for 20 min in RT, washed and concentrated 10X in the spent medium. Assays were performed in 96-well plates in a final volume of […]. Cells were incubated with 10, 20, 40, 80 µM of compounds and after 1- and 40-min incubation at RT, 100 µL cell aliquots were collected by vacuum filtration onto 1.0 µm Glass Fiber Type B filters. For no-cell controls, compounds were diluted to 10, 20, 40, 80 µM final concentration in the same medium, incubated for 1 min and 40 min and filtered onto the same plates. The cell loaded and cell-free filters were dried, removed from plates and placed into 100% methanol at -80 °C for at least 10 min. Filter-bound material was extracted by water bath sonication for 1 min. Cell and filter debris were separated by ultracentrifugation at 45,000 rpm (TLA55 rotor, Beckman) for 8 min at 16 °C and the pellet re-extracted with 80% methanol in water by sonication for 15 min followed by ultracentrifugation at the same conditions. Supernatants from two extractions were combined. For the compound quantification, 5 µL of solution was analyzed in triplicate.
(§4) Calibration curves for MS analyses of compounds were generated in the same experiment by mixing compound at increasing concentrations with the sonicated PAO1 cell extracts. […] Azithromycin was used as a positive control in all experiments.
(§5) Samples were processed in positive ion mode. An Eclipse plus C18 Rapid Resolution HD column (1.8 μm, 2.1 × 50 mm, Agilent, USA) was used for separation. The flow rate was 0.6 mL/min using the following gradient: 0 to 1 min (0- 20% ACN), 1 to 4 min (20- 80% ACN), 4 to 5.1 min (80–100% ACN), 5.1 to 6.30 (100% ACN). Solvents contained 0.1% formic acid to promote positive ion formation in the electrospray. […] Data were analyzed using Agilent Masshunter workstation quantitative analysis v. B.10 software.

P. aeruginosa PΔ3 cells = settings: 10-80 µM; for Concentration slopes of accumulation, PΔ3_1 min: 1 min incubation; for Concentration slopes of accumulation, PΔ3_40 min: 40 min incubation;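 as to all read-outs here: slope of accumulation versus external concentration fitted as a line through zero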
Procedure: as §2, §3, §4, §5

[1] = tested on: P. aeruginosa PΔ3-Pore cells; assay: LC–MS quantification of intracellular accumulation, PΔ3-Pore; settings: 10-80 µM; for Concentration slopes of accumulation, PΔ3-Pore_1 min: 1 min incubation; for Concentration slopes of accumulation, PΔ3-Pore_40min: 40 min incubation;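 as to all read-outs here: slope of accumulation versus external concentration fitted as a line through zero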
Procedure: as §2, §3, §4, §5

[2] = tested on: P. aeruginosa PAO1-Pore cells; assay: LC–MS quantification of intracellular accumulation, PAO1-Pore; settings: 10-80 µM; for Concentration slopes of accumulation, PAO1-Pore_1 min: 1 min incubation; for Concentration slopes of accumulation, PAO1-Pore_40 min: 40 min incubation;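 as to all read-outs here: slope of accumulation versus external concentration fitted as a line through zero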
Procedure: as §2, §3, §4, §5

P. aeruginosa PΔ3 = assay: microbe, parasite or virus in culture; type: cell-based, Pseudomonas aeruginosa; settings: Pseudomonas aeruginosa, read-out: MICs
Procedure: as §1

P. aeruginosa PAO1 = assay: MIC by two-fold dilution, wild type PAO1; type: cell-based, Pseudomonas aeruginosa; settings: Pseudomonas aeruginosa
Procedure: as §1

P. aeruginosa PAO1-Pore = assay: MIC by two-fold dilution, hyperporinated PAO1-Pore; type: cell-based, Pseudomonas aeruginosa; settings: for MICs: PAO1-Pore, LB broth, Table S2; for MIC: Pseudomonas aeruginosa, PAO1, read-out: MICs
Procedure: as §1

P. aeruginosa = settings: sheet "Good" permeators; all listed compounds are good permeators
Procedure: The measured levels of compound accumulation were analyzed using machine learning to determine which features of the compounds are most important for enabling their cellular accumulation and to determine their optimal values. […] To accentuate the permeability aspect, the accumulation slopes in efflux-deficient and hyperporinated strains were normalized to those in the parental PAO1 strain.
To help visualize the data, we performed a principal component (PC) decomposition of the data.

[3] = PAO1, MOPS-M9 medium, read-out: MICs

| Structure (SMILES) | MIC (P. aeruginosa PΔ3-Pore) | MICs (P. aeruginosa PΔ3-Pore) | Concentration slopes of accumulation, PAO1_1 min (P. aeruginosa PAO1 cells) | Concentration slopes of accumulation, PAO1_40 min (P. aeruginosa PAO1 cells) | Concentration slopes of accumulation, PΔ3_1 min (P. aeruginosa PΔ3 cells) | Concentration slopes of accumulation, PΔ3_40 min (P. aeruginosa PΔ3 cells) | Concentration slopes of accumulation, PΔ3-Pore_1 min [1] | Concentration slopes of accumulation, PΔ3-Pore_40min [1] | Concentration slopes of accumulation, PAO1-Pore_1 min [2] | Concentration slopes of accumulation, PAO1-Pore_40 min [2] | MIC (P. aeruginosa PΔ3) | MIC (P. aeruginosa PAO1; [3]) | MICs (P. aeruginosa PAO1-Pore) | MIC (P. aeruginosa PAO1-Pore) | MIC (P. aeruginosa PAO1; PAO1, read-out: MICs) | Cluster of the identified "good" permeators (P. aeruginosa) |
| --- | --- | --- | --- | --- | --- | --- | --- | --- | --- | --- | --- | --- | --- | --- | --- | --- |
| CCN1CCN(c2cc3c(cc2F)c(=O)c(C(=O)O)cn3C2CC2)CC1 [OU-0000620, ENROFLOXACIN] | 0.016 µM and 0.01 µg/mL | 0.0039 | 18.49 | 16.52 | 14.05 | 13.99 | 26.71 | 29.82 | 26.71 | 27.91 | 0.5 µM and 0.18 µg/mL | 2 µM and 0.7 µg/mL | 0.25 | 0.0625 µM and 0.02 µg/mL | – | – |
| C[C@H]1COc2c(N3CCN(C)CC3)c(F)cc3c(=O)c(C(=O)O)cn1c23 [OU-0000806, Levofloxacin] | 0.008 µM and 0.003 µg/mL | 0.0039 | 3.66 | 5.59 | 2.43 | 5.63 | 3.52 | 5.77 | 6.98 | 7.94 | 0.25 µM and 0.2 µg/mL | 0.5 µM and 0.18 µg/mL | 0.25 | 0.031 µM and 0.011 µg/mL | – | – |
| COc1c(N2C[C@@H]3CCCN[C@@H]3C2)c(F)cc2c(=O)c(C(=O)O)cn(C3CC3)c12 [OU-0000626, MOXIFLOXACIN HYDROCHLORIDE] | 0.0313 µM and 0.01 µg/mL | 0.024 | 1.19 | 2.06 | 1.39 | 2.61 | 2.26 | 4.78 | 3.02 | 7.25 | 0.27 µg/mL | 2.5 µM and 1.1 µg/mL | 0.39 | 0.03 µg/mL | – | – |
| COc1cccc2c1C(=O)c1c(O)c3c(c(O)c1C2=O)C[C@@](O)(C(=O)CO)C[C@@H]3O[C@H]1C[C@H](N)[C@H](O)[C@H](C)O1 [OU-0000835, Doxorubicin] | 3.2 µM and 1.7 µg/mL | 25 | 1.38 | 0.84 | 1.32 | 1.10 | 1.89 | 2.13 | 3.78 | – | 25 µM and 13.6 µg/mL | 200 µM and 109 µg/mL | 100 | 12.5 µM and 6.8 µg/mL | – | – |
| COc1cnc(NS(=O)(=O)c2ccc(N)cc2)nc1 [OU-0000694] | 6.25 µM and 1.75 µg/mL | – | 2.18 | 1.74 | 0.87 | 1.82 | 3.61 | 3.14 | 3.10 | 2.35 | 25 µM and 7 µg/mL | – | – | 12.5 µM and 3.5 µg/mL | > 200 µM and > 56.1 µg/mL | – |
| Nc1ccc(S(=O)(=O)Nc2ccnn2-c2ccccc2)cc1 [Sulfaphenazole] | 3.2 µM and 1 µg/mL | – | – | – | – | – | – | – | – | – | 200 µM and 62.9 µg/mL | > 200 µM and > 62.9 µg/mL | – | 12.5 µM and 3.9 µg/mL | – | – |
| C=CCN1CC(CCCC)N(C(=O)OC(C)(C)C)C(Cc2ccccc2)C1=O (stereo not drawn) [OU-0032511] | – | – | – | – | 4.08 | 3.52 | 4.38 | 4.27 | 4.02 | 4.09 | – | – | – | – | – | 1 |
| Cc1noc(NS(=O)(=O)c2ccc(N)cc2)c1C [Sulfisoxazole] | > 200 µM | – | – | – | – | – | – | – | – | – | > 200 µM | > 200 µM and > 53.7 µg/mL | – | > 200 µM | – | – |
| COc1cc(NS(=O)(=O)c2ccc(N)cc2)nc(OC)n1 [Sulfadimethoxine] | 1.6 µM and 0.5 µg/mL | – | – | – | – | – | – | – | – | – | 200 µM and 62.1 µg/mL | – | – | 25 µM and 7.8 µg/mL | > 200 µM and 62.1 µg/mL | – |
| CCn1cc(C(=O)O)c(=O)c2cc3c(cc21)OCO3 [OU-0000621, OXOLINIC ACID] | 0.078 µM and 0.02 µg/mL | 0.097 | 5.93 | 6.11 | 5.83 | 6.58 | 8.75 | 6.70 | 8.17 | 6.63 | 2.5 µM and 0.65 µg/mL | 20 µM and 5.2 µg/mL | 6.25 | 0.625 µM and 0.16 µg/mL | – | – |
| Nc1ccc(S(=O)(=O)Nc2nccs2)cc1 [Sulfathiazole] | 1.6 µM and 0.4 µg/mL | – | – | – | – | – | – | – | – | – | 6.25 µM and 1.6 µg/mL | 50 µM and 12.8 µg/mL | – | 3.2 µM and 0.8 µg/mL | – | – |
| CN1CCN(c2cc3c(cc2F)c(=O)c(C(=O)O)cn3-c2ccc(F)cc2)CC1 [OU-0000624, DIFLOXACIN] | 0.0313 µM and 0.01 µg/mL | 0.097 | 3.78 | 6.48 | 4.42 | 5.02 | 6.73 | 8.21 | 8.04 | 11.39 | 0.313 µM and 0.14 µg/mL | 2.5 µM and 1.1 µg/mL | 0.39 | 0.0625 µM and 0.03 µg/mL | – | – |
| CC1CCc2c(N3CCC(O)CC3)c(F)cc3c(=O)c(C(=O)O)cn1c23 (stereo not drawn) [OU-0000628, nadifloxacin] | 0.0156 µM and 0.01 µg/mL | 0.0015 | 6.36 | 6.93 | 9.00 | 9.79 | 19.74 | 19.09 | 11.41 | 12.74 | 0.625 µM and 0.23 µg/mL | 5 µM and 1.8 µg/mL | 0.39 | 0.0625 µM and 0.02 µg/mL | – | – |
